Reference: patent US20240228458A1, “PYRIMIDINE DERIVATIVE HAVING PROTEIN KINASE INHIBITORY ACTIVITY, AND THERAPEUTIC PHARMACEUTICAL COMPOSITION COMPRISING SAME” (THERAPEX CO., LTD., priority 2021, published 2024)

Key:
Assay type in all cases: cell-based
[1] = test system: Ba/F3 cells expressing del19/T790M (EGFR-DT); assay: Growth inhibition (GI50) of Ba/F3 cells expressing del19/T790M (EGFR-DT), Celltiter glo; conditions: Mus musculus, BaF3, 72 h
Description: (§1) In this experimental example, a determination was made as to whether the compounds prepared in Examples 1-283 have the ability to inhibit the growth of Ba/F3 cells expressing EGFR-wt, del19/T790M/C797S (EGFR-DTC), L858R/T790M/C797S (EGFR-LTC), del19/T790M (EGFR-DT), and L858R/T790M (EGFR-LT) variants.
(§2) The parental Ba/F3 cell line is a population of cells that are not introduced with EGFR variants. Specifically, 100 μl of a cell line expressing each variant was plated in a 96-well plate at a density of 100,000 cells/ml. 10-point, 4-fold serial dilutions of each compound were prepared, starting at 2 mM. After 4 h, 0.5 μl of the compound (0.5% DMSO) was added, followed by incubation at 37° C. and 5% CO2 for 72 h. After incubation, the number of viable cells was measured using a Celltiter glo assay kit (Promega) and the GI50 of the compound was determined. The term “GI50” refers to the molar concentration (μM) of the compound required for 50% growth inhibition of cells.

[2] = test system: Ba/F3 cells expressing del19/T790M/C797S (EGFR-DTC); assay: Growth inhibition (GI50) of Ba/F3 cells expressing del19/T790M/C797S (EGFR-DTC), Celltiter glo; conditions: Mus musculus, BaF3, 72 h
Summary of the method: (§3)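 Ba/F3 cells carrying each EGFR variant were plated at 100,000 cells/ml; after 4 h, compound was added as 10-point 4-fold dilutions (top stock 2 mM, 0.5% DMSO). After 72 h at 37 °C, viability was read by CellTiter-Glo; GI50 is the molar concentration (μM) giving 50% growth inhibition.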

parental Ba/F3 cell line = assay: Growth inhibition (GI50) of the parental Ba/F3 cell line (not introduced with EGFR variants), Celltiter glo; conditions: Mus musculus, BaF3, 72 h, parental Ba/F3 cells
Summary of the method: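 Parental Ba/F3 cells (100,000 cells/ml) were treated with 10-point, 4-fold compound dilutions (0.5% DMSO; top stock 2 mM) for 72 h at 37 °C, 5% CO2. Viability was read by CellTiter-Glo; GI50 is the concentration (μM) giving 50% growth inhibition.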

[3] = test system: Ba/F3 cells expressing EGFR-wt; assay: Growth inhibition (GI50) of Ba/F3 cells expressing EGFR-wt, Celltiter glo; conditions: Mus musculus, BaF3, 72 h
Summary of the method: as §3

[4] = test system: Ba/F3 cells expressing L858R/T790M (EGFR-LT); assay: Growth inhibition (GI50) of Ba/F3 cells expressing L858R/T790M (EGFR-LT), Celltiter glo; conditions: Mus musculus, BaF3, 72 h
Description: as §1, §2

[5] = test system: Ba/F3 cells expressing L858R/T790M/C797S (EGFR-LTC); assay: Growth inhibition (GI50) of Ba/F3 cells expressing L858R/T790M/C797S (EGFR-LTC), Celltiter glo; conditions: Mus musculus, BaF3, 72 h
Summary of the method: as §3

SMILES: COc1nc(N2CCC(N3CCN(C)CC3)CC2)ccc1Nc1ncc(Cl)c(N(c2ccc3scnc3c2NS(C)(=O)=O)S(C)(=O)=O)n1 [Example 111, N-(5-chloro-2-((2-methoxy-6-(4-(4-methylpiperazin-1-yl)piperidin-1-yl)pyridin-3-yl)amino)pyrimidin-4-yl)-N-(4-(methylsulfonamido)benzo[d]thiazol-5-yl)methanesulfonamide]
- GI50 [1]: 500 to 2000 nM
- GI50 [2]: 500 to 2000 nM
- GI50 (parental Ba/F3 cell line): 2000 to 10000 nM
- GI50 [3]: 2000 to 10000 nM
- GI50 [4]: 2000 to 10000 nM

SMILES: CN1CCN(C2CCN(c3ccc(Nc4ncc(Cl)c(Nc5ccc6nccnc6c5P(C)(C)=O)n4)cc3F)CC2)CC1 [Example 125, (6-((5-chloro-2-((3-fluoro-4-(4-(4-methylpiperazin-1-yl)piperidin-1-yl)phenyl)amino)pyrimidin-4-yl)amino)quinoxalin-5-yl)dimethylphosphine oxide]
- GI50 [2]: 25 to 100 nM
- GI50 (parental Ba/F3 cell line): 100 to 500 nM
- GI50 [3]: 100 to 500 nM
- GI50 [5]: 100 to 500 nM

SMILES: COc1nc(N2C[C@@H](C)N(C)[C@@H](C)C2)ccc1Nc1ncc(Cl)c(Nc2ccc3nccnc3c2P(C)(C)=O)n1 [Example 126, (6-((5-chloro-2-((2-methoxy-6-((3S,5R)-3,4,5-trimethylpiperazin-1-yl)pyridin-3-yl)amino)pyrimidin-4-yl)amino)quinoxalin-5-yl)dimethylphosphine oxide]
- GI50 [2]: 100 to 500 nM
- GI50 (parental Ba/F3 cell line): 2000 to 10000 nM
- GI50 [3]: 2000 to 10000 nM
- GI50 [5]: 500 to 2000 nM

SMILES: COc1nc(N2CCC(N(C)C)C2)ccc1Nc1ncc(Cl)c(Nc2ccc3nccnc3c2P(C)(C)=O)n1 (stereo not shown) [Example 127, (6-((5-chloro-2-((6-(3-(dimethylamino)pyrrolidin-1-yl)-2-methoxypyridin-3-yl)amino)pyrimidin-4-yl)amino)quinoxalin-5-yl)dimethylphosphine oxide]
- GI50 [2]: 2000 to 10000 nM
- GI50 (parental Ba/F3 cell line): > 10000 nM
- GI50 [3]: > 10000 nM
- GI50 [5]: 2000 to 10000 nM

SMILES: COc1nc(N2CCNCC2)ccc1Nc1ncc(Cl)c(Nc2ccc3nccnc3c2P(C)(C)=O)n1 [Example 128, (6-((5-chloro-2-((2-methoxy-6-(piperazin-1-yl)pyridin-3-yl)amino)pyrimidin-4-yl)amino)quinoxalin-5-yl)dimethylphosphine oxide]
- GI50 [2]: 500 to 2000 nM
- GI50 (parental Ba/F3 cell line): 2000 to 10000 nM
- GI50 [3]: 2000 to 10000 nM
- GI50 [5]: 500 to 2000 nM

SMILES: COc1nc(N2CCS(=O)(=O)CC2)ccc1Nc1ncc(Cl)c(Nc2ccc3nccnc3c2P(C)(C)=O)n1 [Example 129, 4-(5-((5-chloro-4-((5-(dimethylphosphoryl)quinoxalin-6-yl)amino)pyrimidin-2-yl)amino)-6-methoxypyridin-2-yl)thiomorpholine 1,1-dioxide]
- GI50 [2]: 2000 to 10000 nM
- GI50 (parental Ba/F3 cell line): > 10000 nM
- GI50 [3]: 2000 to 10000 nM
- GI50 [5]: 2000 to 10000 nM

SMILES: COc1nc(N2CCC(N3CCN(C)CC3)CC2)ccc1Nc1ncc(Cl)c(Nc2ccc3nccnc3c2NS(C)(=O)=O)n1 [Example 132, N-(6-((5-chloro-2-((2-methoxy-6-(4-(4-methylpiperazin-1-yl)piperidin-1-yl)pyridin-3-yl)amino)pyrimidin-4-yl)amino)quinoxalin-5-yl)methanesulfonamide]
- GI50 [2]: 100 to 500 nM
- GI50 (parental Ba/F3 cell line): 500 to 2000 nM
- GI50 [3]: 500 to 2000 nM
- GI50 [5]: 100 to 500 nM

SMILES: COc1cc(N2CCC(N3CCN(C)CC3)CC2)ccc1Nc1ncc(Cl)c(Nc2ccc3nccnc3c2NS(C)(=O)=O)n1 [Example 133, N-(6-((5-chloro-2-((2-methoxy-4-(4-(4-methylpiperazin-1-yl)piperidin-1-yl)phenyl)amino)pyrimidin-4-yl)amino)quinoxalin-5-yl)methanesulfonamide]
- GI50 [2]: 100 to 500 nM
- GI50 (parental Ba/F3 cell line): 500 to 2000 nM
- GI50 [3]: 500 to 2000 nM
- GI50 [5]: 100 to 500 nM

SMILES: COc1nc(N2C[C@@H](C)N(C)[C@@H](C)C2)ccc1Nc1ncc(Cl)c(Nc2ccc3nccnc3c2NS(C)(=O)=O)n1 [Example 135, N-(6-((5-chloro-2-((2-methoxy-6-((3S,5R)-3,4,5-trimethylpiperazin-1-yl)pyridin-3-yl)amino)pyrimidin-4-yl)amino)quinoxalin-5-yl)methanesulfonamide]
- GI50 [2]: 100 to 500 nM
- GI50 (parental Ba/F3 cell line): 500 to 2000 nM
- GI50 [3]: 500 to 2000 nM
- GI50 [5]: 100 to 500 nM

SMILES: COc1cc(N2CCC(N3CCN(C)CC3)CC2)c(Cl)cc1Nc1ncc(Cl)c(Nc2ccc3nccnc3c2NS(C)(=O)=O)n1 [Example 136, N-(6-((5-chloro-2-((5-chloro-2-methoxy-4-(4-(4-methylpiperazin-1-yl)piperidin-1-yl)phenyl)amino)pyrimidin-4-yl)amino)quinoxalin-5-yl)methanesulfonamide]
- GI50 [2]: 100 to 500 nM
- GI50 (parental Ba/F3 cell line): 500 to 2000 nM
- GI50 [3]: 500 to 2000 nM
- GI50 [5]: 100 to 500 nM

SMILES: COc1cc(N2CCC(N3CCN(C)CC3)CC2)c(Cl)cc1Nc1ncc(Cl)c(Nc2cc(C(F)(F)F)ccc2NS(C)(=O)=O)n1 [Example 137, N-(2-((5-chloro-2-((5-chloro-2-methoxy-4-(4-(4-methylpiperazin-1-yl)piperidin-1-yl)phenyl)amino)pyrimidin-4-yl)amino)-4-(trifluoromethyl)phenyl)methanesulfonamide]
- GI50 [2]: 100 to 500 nM
- GI50 (parental Ba/F3 cell line): 2000 to 10000 nM
- GI50 [3]: 500 to 2000 nM
- GI50 [5]: 100 to 500 nM

SMILES: COc1cc(N2CCC(N3CCN(C)CC3)CC2)c(C)cc1Nc1ncc(Cl)c(Nc2cc(C(F)(F)F)ccc2NS(C)(=O)=O)n1 [Example 138, N-(2-((5-chloro-2-((2-methoxy-5-methyl-4-(4-(4-methylpiperazin-1-yl)piperidin-1-yl)phenyl)amino)pyrimidin-4-yl)amino)-4-(trifluoromethyl)phenyl)methanesulfonamide]
- GI50 [2]: 100 to 500 nM
- GI50 (parental Ba/F3 cell line): 500 to 2000 nM
- GI50 [3]: 2000 to 10000 nM
- GI50 [5]: 100 to 500 nM

SMILES: COc1cc(N2CCC(N3CCN(C4CC4)CC3)CC2)c(C)cc1Nc1ncc(Cl)c(Nc2cc(C(F)(F)F)ccc2NS(C)(=O)=O)n1 [Example 139, N-(2-((5-chloro-2-((4-(4-(4-cyclopropylpiperazin-1-yl)piperidin-1-yl)-2-methoxy-5-methylphenyl)amino)pyrimidin-4-yl)amino)-4-(trifluoromethyl)phenyl)methanesulfonamide]
- GI50 [2]: 500 to 2000 nM
- GI50 (parental Ba/F3 cell line): 500 to 2000 nM
- GI50 [3]: 2000 to 10000 nM
- GI50 [5]: 500 to 2000 nM

SMILES: COc1cc(N2CCC(N3CCN(C)CC3)CC2)c(C)cc1Nc1nc(N)c(Cl)c(Nc2ccc(F)cc2NS(C)(=O)=O)n1 [Example 141, N-(2-((6-amino-5-chloro-2-((2-methoxy-5-methyl-4-(4-(4-methylpiperazin-1-yl)piperidin-1-yl)phenyl)amino)pyrimidin-4-yl)amino)-5-fluorophenyl)methanesulfonamide]
- GI50 [2]: 500 to 2000 nM
- GI50 (parental Ba/F3 cell line): > 10000 nM
- GI50 [3]: 500 to 2000 nM
- GI50 [5]: 500 to 2000 nM

SMILES: COc1nc(C2CCCN(C)CC2)ccc1Nc1ncc(Br)c(Nc2ccc(F)cc2NS(C)(=O)=O)n1 (stereo not shown) [Example 145, N-(2-((5-bromo-2-((2-methoxy-6-(1-methylazepan-4-yl)pyridin-3-yl)amino)pyrimidin-4-yl)amino)-5-fluorophenyl)methanesulfonamide]
- GI50 [2]: 100 to 500 nM
- GI50 (parental Ba/F3 cell line): 2000 to 10000 nM
- GI50 [3]: 2000 to 10000 nM
- GI50 [5]: 100 to 500 nM

SMILES: COc1cc(N2CCC(N3CCN(C)CC3)CC2)c(F)cc1Nc1ncc(Br)c(Nc2ccc(F)cc2NS(C)(=O)=O)n1 [Example 146, N-(2-((5-bromo-2-((5-fluoro-2-methoxy-4-(4-(4-methylpiperazin-1-yl)piperidin-1-yl)phenyl)amino)pyrimidin-4-yl)amino)-5-fluorophenyl)methanesulfonamide]
- GI50 [2]: 100 to 500 nM
- GI50 (parental Ba/F3 cell line): 2000 to 10000 nM
- GI50 [3]: 500 to 2000 nM
- GI50 [5]: 100 to 500 nM

SMILES: COc1cc(N2CCC(N3CCN(C)CC3)CC2)c(C)cc1Nc1ncc(Cl)c(Nc2cc(Cl)ccc2-c2c[nH]nn2)n1 [Example 166]
- GI50 [2]: 1 to 25 nM
- GI50 (parental Ba/F3 cell line): 500 to 2000 nM
- GI50 [3]: 100 to 500 nM
- GI50 [5]: 1 to 25 nM

SMILES: Cc1cc(Nc2ncc(Cl)c(Nc3cc(Cl)ccc3-c3cnn[nH]3)n2)c(Cl)cc1N1CCC(N2CCN(C)CC2)CC1 [Example 185]
- GI50 [2]: 500 to 2000 nM
- GI50 (parental Ba/F3 cell line): 500 to 2000 nM
- GI50 [3]: 500 to 2000 nM
- GI50 [5]: 25 to 100 nM

SMILES: COc1cc(N2CCC(N3CCN(C)CC3)CC2)c(Cl)cc1Nc1ncc(Cl)c(Nc2cc(Cl)ccc2-c2cnn[nH]2)n1 [Example 186]
- GI50 [2]: 25 to 100 nM
- GI50 (parental Ba/F3 cell line): 100 to 500 nM
- GI50 [3]: 25 to 100 nM
- GI50 [5]: 25 to 100 nM

SMILES: COc1cc(N2CCC(N3CCN(C)CC3)CC2)c(C)cc1Nc1ncc(Br)c(Nc2cc(Cl)ccc2-c2cnn[nH]2)n1 [Example 187]
- GI50 [2]: 25 to 100 nM
- GI50 (parental Ba/F3 cell line): 500 to 2000 nM
- GI50 [3]: 100 to 500 nM
- GI50 [5]: 25 to 100 nM

SMILES: COc1cc(N2CCC(N3CCN(C)CC3)CC2)c(Cl)cc1Nc1ncc(Br)c(Nc2cc(Cl)ccc2-c2cnn[nH]2)n1 [Example 195]
- GI50 [2]: 25 to 100 nM
- GI50 (parental Ba/F3 cell line): 100 to 500 nM
- GI50 [3]: 100 to 500 nM
- GI50 [5]: 25 to 100 nM
